In PubChem BioAssay (NCI):
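Assay format: 96-well plates, 48-hour exposure. GI50 = concentration required for 50% inhibition of growth. TGI marks complete inhibition of growth.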

Legend:
Assay in all cases: growth of human tumour cells (NCI), 48 h
DLD-1 colon = tested on: DLD-1 colon
DMS 273 small cell lung = tested on: DMS 273 small cell lung
HOP-18 NSCLC = tested on: HOP-18 NSCLC
K-562 leukemia = tested on: K-562 leukemia
KM20L2 colon = tested on: KM20L2 colon
LOX IMVI melanoma = tested on: LOX IMVI melanoma
M19-MEL melanoma = tested on: M19-MEL melanoma
MOLT-4 leukemia = tested on: MOLT-4 leukemia
NCI-H23 lung = tested on: NCI-H23 lung
NCI-H460 lung = tested on: NCI-H460 lung
SK-MEL-5 melanoma = tested on: SK-MEL-5 melanoma
SK-OV-3 ovarian = tested on: SK-OV-3 ovarian
SNB-78 CNS = tested on: SNB-78 CNS
MCF7 breast = tested on: MCF7 breast
NCI/ADR-RES ovarian = tested on: NCI/ADR-RES ovarian

With `COc1cc(-c2cccs2)sc1-c1cccs1` the TGI (DLD-1 colon) was over 100 µM, the TGI (DMS 273 small cell lung) was over 100 µM and the TGI (HOP-18 NSCLC) was 17.2 µM. It also gave a TGI (K-562 leukemia) of 51.5 µM, a TGI (KM20L2 colon) of 85.1 µM and a TGI (LOX IMVI melanoma) of over 100 µM. The TGI (M19-MEL melanoma) was over 100 µM, the TGI (MOLT-4 leukemia) was over 100 µM and the TGI (NCI-H23 lung) was over 100 µM. It also gave a TGI (NCI-H460 lung) of over 100 µM, a TGI (SK-MEL-5 melanoma) of over 100 µM and a TGI (SK-OV-3 ovarian) of over 100 µM. For the same compound, the TGI (SNB-78 CNS) was over 100 µM.
With `COc1cc2c(cc1O)[C@H](C)C(c1ccc(OC)c(OC)c1)O2` (some centres undefined) the TGI (DLD-1 colon) was 21.3 µM, the TGI (DMS 273 small cell lung) was 15.4 µM and the TGI (HOP-18 NSCLC) was 20 µM. The TGI (K-562 leukemia) was 17.4 µM, the TGI (KM20L2 colon) was 38.2 µM and the TGI (LOX IMVI melanoma) was 16 µM. It also gave a TGI (M19-MEL melanoma) of 12.2 µM, a TGI (MOLT-4 leukemia) of 23.9 µM and a TGI (NCI-H23 lung) of 28.1 µM. The TGI (NCI-H460 lung) was 4.87 µM, the TGI (SK-MEL-5 melanoma) was 20.8 µM and the TGI (SK-OV-3 ovarian) was over 100 µM. The TGI (SNB-78 CNS) was 64.7 µM.
Compound `Cc1ccc(C(=O)OC(C(=O)O)C(OC(=O)c2ccc(C)cc2)C(=O)O)cc1` (centres undefined) (tested in a mixture with another compound) has a TGI (DLD-1 colon) of 21.3 µM, a TGI (DMS 273 small cell lung) of 10.7 µM and a TGI (HOP-18 NSCLC) of 4.39 µM. For the same compound, the TGI (K-562 leukemia) was 7.87 µM, the TGI (KM20L2 colon) was 13 µM and the TGI (LOX IMVI melanoma) was 20.6 µM. The TGI (M19-MEL melanoma) was 15.1 µM, the TGI (MCF7 breast) was 11.8 µM and the TGI (MOLT-4 leukemia) was 14.3 µM. It also gave a TGI (NCI-H23 lung) of 12.8 µM, a TGI (NCI-H460 lung) of 10.3 µM and a TGI (NCI/ADR-RES ovarian) of 23 µM. It also gave a TGI (SK-MEL-5 melanoma) of 7.72 µM, a TGI (SK-OV-3 ovarian) of 28.2 µM and a TGI (SNB-78 CNS) of 33.8 µM.
Work on `O=c1[nH]c2cc(Cl)ccc2nc1/C(=N\Nc1ccccc1)C(O)c1ccc(Cl)c(Cl)c1` (centres undefined) yielded a TGI (DLD-1 colon) of over 100 µM, a TGI (DMS 273 small cell lung) of over 100 µM and a TGI (K-562 leukemia) of over 100 µM. It also gave a TGI (KM20L2 colon) of over 100 µM, a TGI (LOX IMVI melanoma) of over 100 µM and a TGI (M19-MEL melanoma) of over 100 µM. The TGI (MOLT-4 leukemia) was over 100 µM, the TGI (NCI-H23 lung) was over 100 µM and the TGI (NCI-H460 lung) was over 100 µM. The TGI (SK-MEL-5 melanoma) was over 100 µM, the TGI (SK-OV-3 ovarian) was over 100 µM and the TGI (SNB-78 CNS) was over 100 µM.
In the case of `CCn1cnc2c(=S)nc(N)[nH]c21`, the TGI (DLD-1 colon) is reported as over 100 µM, the TGI (DMS 273 small cell lung) is reported as over 100 µM and the TGI (K-562 leukemia) is reported as over 100 µM. The TGI (KM20L2 colon) was over 100 µM, the TGI (LOX IMVI melanoma) was over 100 µM and the TGI (M19-MEL melanoma) was over 100 µM. It also gave a TGI (MOLT-4 leukemia) of over 100 µM, a TGI (NCI-H23 lung) of over 100 µM and a TGI (NCI-H460 lung) of over 100 µM. For the same compound, the TGI (SK-OV-3 ovarian) was over 100 µM and the TGI (SNB-78 CNS) was over 100 µM.
For `CCNC(=O)c1ccc(C)c(N=NN(C)C)c1`, the TGI (DLD-1 colon) was over 100 µM, the TGI (DMS 273 small cell lung) was over 100 µM and the TGI (KM20L2 colon) was over 100 µM. The TGI (LOX IMVI melanoma) was over 100 µM, the TGI (M19-MEL melanoma) was over 100 µM and the TGI (NCI-H23 lung) was over 100 µM. For the same compound, the TGI (NCI-H460 lung) was over 100 µM, the TGI (SK-MEL-5 melanoma) was over 100 µM and the TGI (SNB-78 CNS) was over 100 µM.
`CCCC/C=C/C=C/C=C/CCCCCCCC(=O)OCC(COC(=O)CCCCCCC/C=C/C1C=CC(CCCC)C(C(=O)O)C1C(=O)O)OC(=O)CCCCCCC/C=C/C=C/C=C/CCCC` (centres undefined) (tested in a mixture with another compound) was tested, and the TGI (DLD-1 colon) was 40 µM, the TGI (DMS 273 small cell lung) was 29.9 µM and the TGI (HOP-18 NSCLC) was 47.8 µM. It also gave a TGI (K-562 leukemia) of 44.2 µM, a TGI (KM20L2 colon) of 48.1 µM and a TGI (LOX IMVI melanoma) of 27.5 µM. The TGI (M19-MEL melanoma) was 36.9 µM, the TGI (MOLT-4 leukemia) was 47.2 µM and the TGI (NCI-H23 lung) was 40.3 µM. The TGI (NCI-H460 lung) was over 100 µM, the TGI (SK-MEL-5 melanoma) was 31.1 µM and the TGI (SK-OV-3 ovarian) was 44.6 µM.
Work on `O=C1C(Br)=C(Br)C(=O)c2ccc(=O)ccc21` yielded a TGI (DLD-1 colon) of 46.6 µM, a TGI (DMS 273 small cell lung) of over 100 µM and a TGI (HOP-18 NSCLC) of 57 µM. For the same compound, the TGI (K-562 leukemia) was over 61.9 µM, the TGI (KM20L2 colon) was over 100 µM and the TGI (LOX IMVI melanoma) was 41.2 µM. For the same compound, the TGI (M19-MEL melanoma) was 32.5 µM, the TGI (MCF7 breast) was 37.4 µM and the TGI (MOLT-4 leukemia) was 23.5 µM. It also gave a TGI (NCI-H23 lung) of 43.1 µM, a TGI (NCI-H460 lung) of 67.6 µM and a TGI (NCI/ADR-RES ovarian) of 53.3 µM. The TGI (SK-MEL-5 melanoma) was 44.4 µM, the TGI (SK-OV-3 ovarian) was over 100 µM and the TGI (SNB-78 CNS) was over 100 µM.
Compound `COCCOCOC(CCCCO)c1cc(C)c(O[Si](C)(C)C(C)(C)C)c(C)c1` (centres undefined) has a TGI (HOP-18 NSCLC) of 30.8 µM, a TGI (K-562 leukemia) of 16.3 µM and a TGI (KM20L2 colon) of 17.9 µM. The TGI (LOX IMVI melanoma) was 18.7 µM, the TGI (M19-MEL melanoma) was 18 µM and the TGI (MOLT-4 leukemia) was 13.2 µM. The TGI (NCI-H23 lung) was 18.7 µM, the TGI (NCI-H460 lung) was 20.2 µM and the TGI (SK-MEL-5 melanoma) was 12.8 µM. It also gave a TGI (SK-OV-3 ovarian) of 31.8 µM.
Work on `O=C(Nc1c(O)[nH]c(=S)[nH]c1=O)c1ccccc1` yielded a TGI (DLD-1 colon) of over 100 µM, a TGI (HOP-18 NSCLC) of over 100 µM and a TGI (K-562 leukemia) of over 100 µM. It also gave a TGI (KM20L2 colon) of over 100 µM, a TGI (LOX IMVI melanoma) of over 100 µM and a TGI (M19-MEL melanoma) of over 100 µM. For the same compound, the TGI (MOLT-4 leukemia) was over 100 µM, the TGI (NCI-H23 lung) was over 100 µM and the TGI (NCI-H460 lung) was over 100 µM. For the same compound, the TGI (SK-MEL-5 melanoma) was over 100 µM, the TGI (SK-OV-3 ovarian) was over 100 µM and the TGI (SNB-78 CNS) was over 100 µM.
For `O=C1c2ccccc2C(=O)c2c(/C=C\N3CCCCC3)ccnc21`, the TGI (DLD-1 colon) was 15.8 µM, the TGI (DMS 273 small cell lung) was 10.4 µM and the TGI (HOP-18 NSCLC) was 2.96 µM. For the same compound, the TGI (K-562 leukemia) was 36 µM, the TGI (KM20L2 colon) was 32.6 µM and the TGI (LOX IMVI melanoma) was 1.68 µM. For the same compound, the TGI (M19-MEL melanoma) was 0.563 µM, the TGI (MCF7 breast) was 4.01 µM and the TGI (MOLT-4 leukemia) was 41.1 µM. For the same compound, the TGI (NCI-H23 lung) was 1.31 µM, the TGI (NCI-H460 lung) was 4.91 µM and the TGI (NCI/ADR-RES ovarian) was over 95.4 µM. The TGI (SK-MEL-5 melanoma) was 1.1 µM, the TGI (SK-OV-3 ovarian) was 50.9 µM and the TGI (SNB-78 CNS) was 61.8 µM.
Compound `O=c1cc(-c2ccc3c(c2)OCO3)[nH]c2cc3c(cc12)OCO3` has a TGI (DLD-1 colon) of over 100 µM, a TGI (DMS 273 small cell lung) of over 100 µM and a TGI (HOP-18 NSCLC) of over 100 µM. It also gave a TGI (K-562 leukemia) of over 100 µM, a GI50 (KM20L2 colon) of 26.6 µM and a TGI (KM20L2 colon) of 74.5 µM. It also gave a TGI (LOX IMVI melanoma) of over 100 µM, a TGI (M19-MEL melanoma) of 78.2 µM and a TGI (MOLT-4 leukemia) of over 100 µM. The TGI (NCI-H23 lung) was over 100 µM, the TGI (NCI-H460 lung) was over 100 µM and the GI50 (SK-MEL-5 melanoma) was 25.4 µM. For the same compound, the TGI (SK-MEL-5 melanoma) was over 100 µM, the TGI (SK-OV-3 ovarian) was 99.4 µM and the TGI (SNB-78 CNS) was over 100 µM.
For `COc1cc(C2C(Cl)C(=O)N2n2cnc3ccccc3c2=O)ccc1O` (centres undefined), the TGI (DLD-1 colon) was over 100 µM, the TGI (DMS 273 small cell lung) was over 100 µM and the TGI (HOP-18 NSCLC) was over 100 µM. For the same compound, the TGI (KM20L2 colon) was over 100 µM, the TGI (LOX IMVI melanoma) was over 100 µM and the TGI (M19-MEL melanoma) was over 100 µM. It also gave a TGI (MOLT-4 leukemia) of over 100 µM, a TGI (NCI-H23 lung) of over 100 µM and a TGI (NCI-H460 lung) of over 100 µM. It also gave a TGI (SK-MEL-5 melanoma) of over 100 µM, a TGI (SK-OV-3 ovarian) of over 100 µM and a TGI (SNB-78 CNS) of over 100 µM.
Compound `CC1NC(=O)C(C)C(c2ccccc2)N(N=O)C1c1ccccc1` (centres undefined) has a TGI (DLD-1 colon) of over 100 µM, a TGI (DMS 273 small cell lung) of over 100 µM and a TGI (HOP-18 NSCLC) of over 100 µM. The TGI (K-562 leukemia) was over 100 µM, the TGI (KM20L2 colon) was over 100 µM and the TGI (LOX IMVI melanoma) was over 100 µM. For the same compound, the TGI (MCF7 breast) was over 100 µM, the TGI (MOLT-4 leukemia) was over 100 µM and the TGI (NCI-H23 lung) was over 100 µM. The TGI (NCI-H460 lung) was over 100 µM, the TGI (NCI/ADR-RES ovarian) was over 100 µM and the TGI (SK-MEL-5 melanoma) was over 100 µM. It also gave a TGI (SK-OV-3 ovarian) of over 79.1 µM and a TGI (SNB-78 CNS) of over 100 µM.
`C/C(CN1C(=O)c2ccccc2C1=O)=N\NS(=O)(=O)c1ccc(Cl)cc1` gave a TGI (DLD-1 colon) of over 100 µM, a TGI (DMS 273 small cell lung) of over 100 µM and a TGI (HOP-18 NSCLC) of over 100 µM. It also gave a TGI (K-562 leukemia) of over 100 µM, a TGI (KM20L2 colon) of over 100 µM and a TGI (M19-MEL melanoma) of over 100 µM. It also gave a TGI (MOLT-4 leukemia) of over 100 µM, a TGI (NCI-H23 lung) of over 100 µM and a TGI (NCI-H460 lung) of over 100 µM. The TGI (SK-MEL-5 melanoma) was over 100 µM and the TGI (SNB-78 CNS) was over 100 µM.
